Tests used:
[1] = molecular target: Proto-oncogene tyrosine-protein kinase Src (Homo sapiens, UniProt P12931); test: Inhibition of Src
[2] = molecular target: Mitogen-activated protein kinase 14 (Homo sapiens, UniProt Q16539); test: Inhibition of p38alpha
[3] = molecular target: Tyrosine-protein kinase Lck (Homo sapiens, UniProt P06239)
Description: Inhibition of Lck in presence of 0.5 uM ATP by HTRF kinase assay

[4] = molecular target: Vascular endothelial growth factor receptor 2 (Homo sapiens, UniProt P35968)
[5] = tested on: T-cell; test: Inhibition of anti-CD3/CD28-induced IL2 secretion in human T cells; assay type: functional, cell-based
[6] = tested on: T-cell; test: Inhibition of human T cell proliferation by mixed lymphocyte reaction; assay type: functional, cell-based
[7] = Protein binding in human plasma; assay type: ADME, cell-free; conditions: read-out: PPB (converted)
[8] = AUC (0-infinity) in Sprague-Dawley rat at 1 mg/kg, iv; assay type: ADME, organism-based; set-up: time infinity, dose 1 mg/kg, route intravenous; conditions: plasma
[9] = Clearance in Sprague-Dawley rat at 1 mg/kg, iv; assay type: ADME, organism-based; set-up: dose 1 mg/kg, route intravenous; conditions: in vivo
[10] = Volume of distribution in Sprague-Dawley rat at 1 mg/kg, iv; assay type: ADME, organism-based; set-up: dose 1 mg/kg, route intravenous; conditions: in vivo, read-out: Vss
[11] = Half life in Sprague-Dawley rat at 1 mg/kg, iv; assay type: ADME, organism-based; set-up: dose 1 mg/kg, route intravenous; conditions: in vivo
[12] = Cmax in Sprague-Dawley rat at 5 mg/kg, po; assay type: ADME, organism-based; set-up: dose 5 mg/kg, route oral; conditions: in vivo
[13] = Tmax in Sprague-Dawley rat at 5 mg/kg, po; assay type: ADME, organism-based; set-up: dose 5 mg/kg, route oral; conditions: in vivo
[14] = molecular target: Cyclin-dependent kinase 2 (Homo sapiens, UniProt P24941); test: Inhibition of CDK2
[15] = molecular target: Protein kinase C theta type (Homo sapiens, UniProt Q04759); test: Inhibition of PKCtheta
[16] = tested on: T-cell; test: Inhibition of anti-CD3/CD28-induced T cell proliferation; assay type: functional, cell-based; conditions: Homo sapiens
[17] = organism: Homo sapiens; test: Inhibition of anti-CD3/CD28-induced IL2 secretion in human whole blood T cell; assay type: functional
[18] = tested on: T-cell; test: Inhibition of T cell receptor zeta chain phosphorylation; assay type: functional, cell-based; conditions: Homo sapiens
[19] = tested on: T-cell; test: Inhibition of anti-CD3/CD28-induced IL2 secretion in T cells stimulated with phorbol myristic acid and calcium ionophore; assay type: functional, cell-based; conditions: Homo sapiens
[20] = tested on: Jurkat; test: Antiproliferative activity against Jurkat cells; assay type: functional, cell-based; conditions: Homo sapiens
[21] = AUC (0-infinity) in Sprague-Dawley rat at 5 mg/kg, po; assay type: ADME, organism-based; set-up: time infinity, dose 5 mg/kg, route oral; conditions: plasma
[22] = Bioavailability in Sprague-Dawley rat at 5 mg/kg, po; assay type: ADME, organism-based; conditions: in vivo
[23] = tested on: Mus musculus; test: Inhibition of anti-CD3-induced IL2 production in BALB/c mouse at 10 mg/kg, po; assay type: functional
[24] = tested on: Mus musculus; test: Inhibition of anti-CD3-induced IL2 production in BALB/c mouse at 30 mg/kg, po; assay type: functional
[25] = tested on: Mus musculus; test: Inhibition of anti-CD3-induced IL2 production in BALB/c mouse at 100 mg/kg, po; assay type: functional
[26] = Protein binding in rat plasma; assay type: ADME, cell-free; conditions: read-out: PPB (converted)
[27] = molecular target: Tyrosine-protein kinase SYK (Homo sapiens, UniProt P43405); test: Inhibition of Syk
[28] = molecular target: Tyrosine-protein kinase BTK (Homo sapiens, UniProt Q06187)
[29] = molecular target: Insulin-like growth factor 1 receptor (Homo sapiens, UniProt P08069)
[30] = molecular target: Tyrosine-protein kinase JAK2 (Homo sapiens, UniProt O60674)
[31] = molecular target: T1, Tyrosine-protein kinase JAK3 (Homo sapiens, UniProt P52333)
T1 sequence (P52333 whole entry): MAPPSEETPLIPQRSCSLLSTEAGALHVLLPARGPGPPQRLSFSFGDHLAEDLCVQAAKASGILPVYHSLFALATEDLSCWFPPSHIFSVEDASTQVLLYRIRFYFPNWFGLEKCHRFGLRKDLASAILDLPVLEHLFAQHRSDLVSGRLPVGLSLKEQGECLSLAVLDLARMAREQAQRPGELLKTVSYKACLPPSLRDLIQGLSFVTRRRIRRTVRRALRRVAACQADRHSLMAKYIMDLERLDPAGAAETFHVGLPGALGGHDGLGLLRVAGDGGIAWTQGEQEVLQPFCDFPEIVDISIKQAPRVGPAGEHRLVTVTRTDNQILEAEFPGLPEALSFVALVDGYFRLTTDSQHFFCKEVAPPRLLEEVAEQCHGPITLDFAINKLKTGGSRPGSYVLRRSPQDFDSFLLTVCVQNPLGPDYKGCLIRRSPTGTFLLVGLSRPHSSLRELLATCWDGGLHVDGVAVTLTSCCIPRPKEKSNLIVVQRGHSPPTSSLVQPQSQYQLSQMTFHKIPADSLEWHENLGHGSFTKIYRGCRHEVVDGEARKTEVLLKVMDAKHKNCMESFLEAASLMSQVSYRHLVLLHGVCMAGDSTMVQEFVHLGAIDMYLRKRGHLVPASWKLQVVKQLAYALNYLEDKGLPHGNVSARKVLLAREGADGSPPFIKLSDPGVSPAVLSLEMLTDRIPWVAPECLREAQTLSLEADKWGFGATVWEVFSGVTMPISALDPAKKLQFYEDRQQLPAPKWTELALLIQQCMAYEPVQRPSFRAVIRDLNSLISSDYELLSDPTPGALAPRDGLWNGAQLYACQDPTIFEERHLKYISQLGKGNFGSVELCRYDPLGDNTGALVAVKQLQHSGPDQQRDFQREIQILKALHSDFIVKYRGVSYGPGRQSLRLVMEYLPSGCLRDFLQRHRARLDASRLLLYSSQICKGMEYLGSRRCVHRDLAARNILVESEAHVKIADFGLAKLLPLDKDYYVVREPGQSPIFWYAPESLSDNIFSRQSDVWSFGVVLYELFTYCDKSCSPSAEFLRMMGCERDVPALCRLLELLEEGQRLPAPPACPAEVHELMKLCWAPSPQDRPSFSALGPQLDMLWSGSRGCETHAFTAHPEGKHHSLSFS

[32] = molecular target: Mitogen-activated protein kinase 10 (Homo sapiens, UniProt P53779)

Chain of Vascular endothelial growth factor receptor 2 (P35968 whole entry): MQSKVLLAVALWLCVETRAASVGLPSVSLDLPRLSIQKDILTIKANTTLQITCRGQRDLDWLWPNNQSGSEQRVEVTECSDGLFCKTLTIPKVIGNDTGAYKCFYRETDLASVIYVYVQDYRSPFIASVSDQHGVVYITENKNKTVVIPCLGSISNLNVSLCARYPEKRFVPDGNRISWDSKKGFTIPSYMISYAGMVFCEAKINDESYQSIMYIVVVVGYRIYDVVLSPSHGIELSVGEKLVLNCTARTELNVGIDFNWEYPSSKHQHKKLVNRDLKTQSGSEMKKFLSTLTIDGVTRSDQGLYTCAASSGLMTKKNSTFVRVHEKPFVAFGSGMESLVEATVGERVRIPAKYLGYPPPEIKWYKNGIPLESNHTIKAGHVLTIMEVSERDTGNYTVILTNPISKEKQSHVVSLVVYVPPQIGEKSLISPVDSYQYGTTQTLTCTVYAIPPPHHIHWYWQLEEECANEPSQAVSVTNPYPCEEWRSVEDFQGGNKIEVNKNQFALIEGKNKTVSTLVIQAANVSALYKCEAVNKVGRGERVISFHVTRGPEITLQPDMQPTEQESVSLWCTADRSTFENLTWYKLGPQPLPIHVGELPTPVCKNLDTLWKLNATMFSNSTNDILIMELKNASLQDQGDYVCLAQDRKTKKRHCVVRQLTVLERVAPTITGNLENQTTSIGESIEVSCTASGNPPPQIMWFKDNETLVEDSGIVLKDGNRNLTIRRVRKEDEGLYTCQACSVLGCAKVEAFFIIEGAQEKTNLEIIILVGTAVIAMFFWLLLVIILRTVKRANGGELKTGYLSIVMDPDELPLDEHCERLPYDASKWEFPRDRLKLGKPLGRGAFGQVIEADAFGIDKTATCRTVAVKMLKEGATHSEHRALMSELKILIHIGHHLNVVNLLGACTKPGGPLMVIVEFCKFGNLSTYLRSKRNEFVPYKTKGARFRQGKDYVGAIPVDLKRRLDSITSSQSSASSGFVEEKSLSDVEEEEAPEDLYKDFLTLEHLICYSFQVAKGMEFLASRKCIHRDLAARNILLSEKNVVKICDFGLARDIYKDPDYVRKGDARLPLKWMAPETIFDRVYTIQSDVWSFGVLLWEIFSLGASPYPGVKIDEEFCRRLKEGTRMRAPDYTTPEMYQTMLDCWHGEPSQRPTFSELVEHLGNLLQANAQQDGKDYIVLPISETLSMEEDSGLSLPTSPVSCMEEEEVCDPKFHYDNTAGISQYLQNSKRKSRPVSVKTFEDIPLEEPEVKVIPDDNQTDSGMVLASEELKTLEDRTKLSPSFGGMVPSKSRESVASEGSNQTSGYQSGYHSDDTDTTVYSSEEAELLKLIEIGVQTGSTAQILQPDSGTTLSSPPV
Chain of Proto-oncogene tyrosine-protein kinase Src (P12931 2-536 limits assumed): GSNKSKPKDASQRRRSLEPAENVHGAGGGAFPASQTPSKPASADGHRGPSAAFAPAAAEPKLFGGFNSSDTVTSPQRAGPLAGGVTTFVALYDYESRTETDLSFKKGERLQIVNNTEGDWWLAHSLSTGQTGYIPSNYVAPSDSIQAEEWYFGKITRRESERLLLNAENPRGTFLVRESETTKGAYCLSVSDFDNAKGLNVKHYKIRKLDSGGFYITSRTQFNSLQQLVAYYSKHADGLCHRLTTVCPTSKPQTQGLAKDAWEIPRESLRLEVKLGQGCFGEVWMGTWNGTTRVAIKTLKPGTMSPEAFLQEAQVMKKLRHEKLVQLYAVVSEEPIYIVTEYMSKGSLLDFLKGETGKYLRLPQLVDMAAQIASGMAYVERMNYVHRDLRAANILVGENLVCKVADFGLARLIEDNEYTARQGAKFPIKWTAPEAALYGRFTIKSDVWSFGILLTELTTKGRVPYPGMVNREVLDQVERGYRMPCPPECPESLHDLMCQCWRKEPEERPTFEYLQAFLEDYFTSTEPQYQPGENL
Chain of Tyrosine-protein kinase Lck (P06239 whole entry): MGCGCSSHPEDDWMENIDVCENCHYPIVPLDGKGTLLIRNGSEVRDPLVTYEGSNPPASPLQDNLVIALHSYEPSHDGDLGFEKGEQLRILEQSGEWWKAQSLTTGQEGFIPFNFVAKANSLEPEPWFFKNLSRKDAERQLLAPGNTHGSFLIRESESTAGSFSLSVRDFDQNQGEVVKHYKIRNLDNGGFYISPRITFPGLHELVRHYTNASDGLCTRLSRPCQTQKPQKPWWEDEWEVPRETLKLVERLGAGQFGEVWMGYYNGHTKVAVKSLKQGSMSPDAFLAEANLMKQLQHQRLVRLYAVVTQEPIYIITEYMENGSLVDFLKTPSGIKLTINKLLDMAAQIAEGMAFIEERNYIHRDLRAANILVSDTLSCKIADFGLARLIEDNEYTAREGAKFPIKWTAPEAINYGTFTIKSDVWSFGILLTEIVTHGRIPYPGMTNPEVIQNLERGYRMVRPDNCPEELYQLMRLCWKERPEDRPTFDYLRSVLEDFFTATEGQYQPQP
Chain of Mitogen-activated protein kinase 14 (Q16539 whole entry): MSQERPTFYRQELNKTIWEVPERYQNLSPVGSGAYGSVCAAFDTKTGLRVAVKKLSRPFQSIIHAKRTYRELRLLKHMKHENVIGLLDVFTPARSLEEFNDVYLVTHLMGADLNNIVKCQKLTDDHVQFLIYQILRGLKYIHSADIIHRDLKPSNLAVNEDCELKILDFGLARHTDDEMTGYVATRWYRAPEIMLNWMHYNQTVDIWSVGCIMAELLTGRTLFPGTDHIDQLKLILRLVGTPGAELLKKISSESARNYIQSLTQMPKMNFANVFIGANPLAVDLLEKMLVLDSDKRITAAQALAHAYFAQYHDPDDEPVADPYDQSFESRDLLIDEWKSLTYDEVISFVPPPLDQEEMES
Chain of Insulin-like growth factor 1 receptor (P08069 31-736 limits assumed): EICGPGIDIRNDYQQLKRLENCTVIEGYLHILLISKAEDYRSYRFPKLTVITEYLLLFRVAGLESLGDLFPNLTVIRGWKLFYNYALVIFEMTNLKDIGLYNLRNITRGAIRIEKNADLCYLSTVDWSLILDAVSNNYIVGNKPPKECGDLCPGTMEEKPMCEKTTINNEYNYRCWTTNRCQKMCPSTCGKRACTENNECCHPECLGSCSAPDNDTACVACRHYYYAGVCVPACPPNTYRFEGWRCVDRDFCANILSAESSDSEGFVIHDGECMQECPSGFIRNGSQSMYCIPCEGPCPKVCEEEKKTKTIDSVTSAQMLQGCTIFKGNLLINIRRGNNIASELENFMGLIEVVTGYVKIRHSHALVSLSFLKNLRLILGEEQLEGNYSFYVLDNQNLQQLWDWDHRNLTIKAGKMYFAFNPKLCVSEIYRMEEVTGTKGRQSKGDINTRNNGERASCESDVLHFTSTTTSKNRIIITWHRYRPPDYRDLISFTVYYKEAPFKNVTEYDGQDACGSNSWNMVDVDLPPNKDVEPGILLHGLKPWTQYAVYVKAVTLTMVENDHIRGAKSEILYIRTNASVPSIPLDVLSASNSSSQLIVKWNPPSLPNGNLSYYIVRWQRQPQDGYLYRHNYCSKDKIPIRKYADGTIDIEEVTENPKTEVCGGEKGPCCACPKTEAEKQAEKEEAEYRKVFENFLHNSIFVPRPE
Chain of Insulin-like growth factor 1 receptor (P08069 741-1367 limits assumed): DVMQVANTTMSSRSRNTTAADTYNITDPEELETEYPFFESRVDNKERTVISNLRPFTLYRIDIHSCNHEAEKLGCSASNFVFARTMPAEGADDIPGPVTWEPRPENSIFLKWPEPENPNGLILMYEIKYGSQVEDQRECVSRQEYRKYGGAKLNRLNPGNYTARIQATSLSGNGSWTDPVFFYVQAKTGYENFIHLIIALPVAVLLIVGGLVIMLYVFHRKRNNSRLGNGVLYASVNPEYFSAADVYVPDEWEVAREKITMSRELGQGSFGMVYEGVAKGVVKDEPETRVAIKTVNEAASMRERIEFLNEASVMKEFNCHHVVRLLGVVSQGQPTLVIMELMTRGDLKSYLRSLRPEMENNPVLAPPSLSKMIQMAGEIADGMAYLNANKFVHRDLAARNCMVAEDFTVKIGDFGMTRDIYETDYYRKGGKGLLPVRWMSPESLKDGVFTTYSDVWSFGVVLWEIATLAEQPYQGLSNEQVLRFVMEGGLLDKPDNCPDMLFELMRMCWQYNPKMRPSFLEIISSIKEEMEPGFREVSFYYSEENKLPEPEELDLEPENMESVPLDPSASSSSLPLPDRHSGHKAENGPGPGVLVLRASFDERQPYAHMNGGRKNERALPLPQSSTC
Chain of Protein kinase C theta type (Q04759 whole entry): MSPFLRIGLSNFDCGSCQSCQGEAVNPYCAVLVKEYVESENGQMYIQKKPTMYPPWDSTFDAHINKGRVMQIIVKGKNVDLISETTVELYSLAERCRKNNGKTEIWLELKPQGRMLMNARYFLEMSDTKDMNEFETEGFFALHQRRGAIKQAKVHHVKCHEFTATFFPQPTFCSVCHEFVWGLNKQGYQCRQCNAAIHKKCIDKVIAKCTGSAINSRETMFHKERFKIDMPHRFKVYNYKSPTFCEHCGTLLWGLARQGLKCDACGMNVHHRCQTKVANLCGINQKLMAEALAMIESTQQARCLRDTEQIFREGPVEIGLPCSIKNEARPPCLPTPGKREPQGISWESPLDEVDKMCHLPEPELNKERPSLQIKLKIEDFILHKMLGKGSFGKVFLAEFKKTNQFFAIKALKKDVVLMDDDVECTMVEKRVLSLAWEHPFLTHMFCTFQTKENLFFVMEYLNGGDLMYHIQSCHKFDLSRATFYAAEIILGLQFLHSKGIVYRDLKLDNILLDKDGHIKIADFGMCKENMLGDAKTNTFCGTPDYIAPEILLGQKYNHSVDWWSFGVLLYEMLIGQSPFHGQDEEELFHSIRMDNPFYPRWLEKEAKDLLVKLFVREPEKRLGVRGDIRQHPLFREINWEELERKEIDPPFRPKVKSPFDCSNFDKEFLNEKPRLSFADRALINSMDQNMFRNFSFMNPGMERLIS

Cc1cccc(C)c1OC(=O)N(c1ccc(-c2ccccc2)cc1)c1ccnc(Nc2ccc(N3CCN(C)CC3)cc2)n1
IC50 [1]: 98 nM
IC50 [2]: 1800 nM
IC50 [3]: 13 nM
IC50 [4]: 590 nM

COc1ccccc1N(C(=O)Oc1c(C)cccc1C)c1ccnc(Nc2ccc(N3CCN(C)CC3)cc2)n1
IC50 [1]: 4 nM
IC50 [2]: 420 nM
IC50 [3]: 1 nM
IC50 [4]: 190 nM

COc1ccc(N(C(=O)Oc2c(C)cccc2C)c2ccnc(Nc3ccc(N4CCN(C)CC4)c(F)c3)n2)c(OC)c1
IC50 [1]: 2 nM
IC50 [2]: 1000 nM
IC50 [5]: 200 nM
IC50 [3]: 1 nM
IC50 [4]: 260 nM

COc1ccc(N(C(=O)Oc2c(C)cccc2C)c2ccnc(Nc3cc(OC)c(OCCN4CCN(C)CC4)c(OC)c3)n2)c(OC)c1
IC50 [1]: 1 nM
IC50 [2]: 180 nM
IC50 [5]: 290 nM
IC50 [3]: 1 nM
IC50 [4]: 230 nM

COc1ccc(N(C(=O)Oc2c(C)cccc2C)c2ccnc(Nc3ccc(OCCN(C)C)cc3)n2)c(OC)c1
IC50 [1]: 4 nM
IC50 [2]: 2100 nM
IC50 [5]: 270 nM
IC50 [3]: 1 nM
IC50 [4]: 220 nM

COc1ccc(N(C(=O)Oc2c(C)cccc2C)c2ccnc(Nc3ccc(N4CCN(C)CC4)cc3)n2)c(OC)c1
IC50 [1]: 6 nM
IC50 [2]: 1300 nM
IC50 [5]: 1900 nM
IC50 [3]: 2 nM
IC50 [4]: 640 nM

COc1ccc(N(C(=O)Oc2c(C)cccc2C)c2ccnc(Nc3ccc(OCCCN(C)C)cc3)n2)c(OC)c1
IC50 [1]: 4 nM
IC50 [2]: 2100 nM
IC50 [5]: 230 nM
IC50 [3]: 1 nM
IC50 [4]: 230 nM

COc1ccc(N(C(=O)Oc2c(C)cccc2C)c2ccnc(Nc3ccc(OCCCN4CCN(C)CC4)c(F)c3)n2)c(OC)c1
IC50 [1]: 5 nM
IC50 [2]: 1300 nM
IC50 [5]: 510 nM
IC50 [3]: 1 nM
IC50 [4]: 590 nM

COc1ccc(N(C(=O)Oc2c(C)cccc2C)c2ccnc(Nc3ccc(OCCCN4CCCCC4)c(F)c3)n2)c(OC)c1
IC50 [1]: 12 nM
IC50 [2]: 6800 nM
IC50 [5]: 860 nM
IC50 [3]: 2 nM
IC50 [4]: 620 nM

Cc1cccc(C)c1OC(=O)N(c1cccc(-c2ccccc2)c1)c1ccnc(Nc2ccc(N3CCN(C)CC3)cc2)n1
IC50 [1]: 500 nM
IC50 [2]: 8000 nM
IC50 [3]: 49 nM
IC50 [4]: 1900 nM

COc1ccc(N(C(=O)Oc2c(C)cccc2C)c2ccnc(Nc3ccc(N4CCN(C)CC4)c(OC)c3)n2)c(OC)c1
IC50 [1]: 2 nM
IC50 [2]: 440 nM
IC50 [5]: 140 nM
IC50 [3]: 1 nM
IC50 [4]: 140 nM

COc1ccc(N(C(=O)Oc2c(C)cccc2C)c2ccnc(Nc3ccc(N4CCN(C)CC4)cc3)n2)cc1
IC50 [1]: 3 nM
IC50 [2]: 320 nM
IC50 [3]: 12 nM
IC50 [4]: 420 nM

Cc1cccc(C)c1OC(=O)N(c1ccnc(Nc2ccc(N3CCN(C)CC3)cc2)n1)c1ccc(F)cc1OC(C)C
IC50 [1]: 13 nM
IC50 [2]: 1200 nM
IC50 [3]: 1 nM
IC50 [4]: 4800 nM

COc1ccc(N(C(=O)Oc2c(C)cccc2C)c2ccnc(Nc3cc(OC)c(OCCN4CCOCC4)c(OC)c3)n2)c(OC)c1
IC50 [1]: 2 nM
IC50 [2]: 1200 nM
IC50 [5]: 410 nM
IC50 [3]: 1 nM
IC50 [4]: 170 nM

Cc1cccc(C)c1OC(=O)N(c1ccc2ccccc2c1)c1ccnc(Nc2ccc(N3CCN(C)CC3)cc2)n1
IC50 [1]: 14 nM
IC50 [2]: 740 nM
IC50 [3]: 10 nM
IC50 [4]: 130 nM

COc1ccc(N(C(=O)Oc2c(C)cccc2C)c2ccnc(Nc3ccc(OCCCN4CCN(C)CC4)c(OC)c3)n2)c(OC)c1
IC50 [1]: 2 nM
IC50 [2]: 2300 nM
IC50 [5]: 100 nM
IC50 [3]: 1 nM
IC50 [4]: 210 nM

COc1ccc(N(C(=O)Oc2c(C)cccc2C)c2ccnc(Nc3cc(OC)c(N4CCN(C)CC4)c(OC)c3)n2)c(OC)c1
IC50 [1]: 1 nM
IC50 [2]: 430 nM
IC50 [6]: 590 nM
IC50 [3]: 1 nM
IC50 [4]: 170 nM

COc1ccc(N(C(=O)Oc2c(C)cccc2C)c2ccnc(Nc3cc(OC)c(OCCCN4CCN(C)CC4)c(OC)c3)n2)c(OC)c1
fraction unbound [7]: 0.013
AUC(0-inf) [8]: 568 ng·h/mL
clearance [9]: 30.5 mL/min/kg
Vd [10]: 11.3 L/kg
half-life [11]: 4.6 h
Cmax [12]: 22 ng/mL
Tmax [13]: 4 h
IC50 [14]: > 40000 nM
IC50 [15]: > 5000 nM
IC50 [16]: 490 nM
IC50 [17]: 3000 nM
IC50 [18]: 780 nM
IC50 [19]: 1800 nM
IC50 [20]: 1700 nM
IC50 [1]: 1 nM
IC50 [2]: 530 nM
IC50 [5]: 61 nM
AUC(0-inf) [21]: 175 ng·h/mL
bioavailability [22]: 6%
inhibition in vivo at 10 mg/kg [23]: 11%
inhibition in vivo at 30 mg/kg [24]: 21%
inhibition in vivo at 100 mg/kg [25]: 60%
fraction unbound [26]: 0.016
IC50 [27]: 200 nM
IC50 [28]: 100 nM
IC50 [29]: > 25000 nM
IC50 [30]: 240 nM
IC50 [31]: 1200 nM
IC50 [32]: > 5000 nM

Cc1cccc(C)c1OC(=O)N(c1ccccc1)c1ccnc(Nc2ccc(N3CCN(C)CC3)cc2)n1
IC50 [1]: 10 nM
IC50 [2]: 160 nM
IC50 [3]: 14 nM
IC50 [4]: 190 nM
